pIC50: −log10 of the molar value.
Molecular target: Voltage-dependent N-type calcium channel subunit alpha-1B (Homo sapiens, UniProt Q00975)
Experiment: Inhibition of N-type Voltage Sensitive Calcium Channel (VSCC) using IMR-32 assay
Format: functional

Chain of Voltage-dependent N-type calcium channel subunit alpha-1B (Q00975 whole entry): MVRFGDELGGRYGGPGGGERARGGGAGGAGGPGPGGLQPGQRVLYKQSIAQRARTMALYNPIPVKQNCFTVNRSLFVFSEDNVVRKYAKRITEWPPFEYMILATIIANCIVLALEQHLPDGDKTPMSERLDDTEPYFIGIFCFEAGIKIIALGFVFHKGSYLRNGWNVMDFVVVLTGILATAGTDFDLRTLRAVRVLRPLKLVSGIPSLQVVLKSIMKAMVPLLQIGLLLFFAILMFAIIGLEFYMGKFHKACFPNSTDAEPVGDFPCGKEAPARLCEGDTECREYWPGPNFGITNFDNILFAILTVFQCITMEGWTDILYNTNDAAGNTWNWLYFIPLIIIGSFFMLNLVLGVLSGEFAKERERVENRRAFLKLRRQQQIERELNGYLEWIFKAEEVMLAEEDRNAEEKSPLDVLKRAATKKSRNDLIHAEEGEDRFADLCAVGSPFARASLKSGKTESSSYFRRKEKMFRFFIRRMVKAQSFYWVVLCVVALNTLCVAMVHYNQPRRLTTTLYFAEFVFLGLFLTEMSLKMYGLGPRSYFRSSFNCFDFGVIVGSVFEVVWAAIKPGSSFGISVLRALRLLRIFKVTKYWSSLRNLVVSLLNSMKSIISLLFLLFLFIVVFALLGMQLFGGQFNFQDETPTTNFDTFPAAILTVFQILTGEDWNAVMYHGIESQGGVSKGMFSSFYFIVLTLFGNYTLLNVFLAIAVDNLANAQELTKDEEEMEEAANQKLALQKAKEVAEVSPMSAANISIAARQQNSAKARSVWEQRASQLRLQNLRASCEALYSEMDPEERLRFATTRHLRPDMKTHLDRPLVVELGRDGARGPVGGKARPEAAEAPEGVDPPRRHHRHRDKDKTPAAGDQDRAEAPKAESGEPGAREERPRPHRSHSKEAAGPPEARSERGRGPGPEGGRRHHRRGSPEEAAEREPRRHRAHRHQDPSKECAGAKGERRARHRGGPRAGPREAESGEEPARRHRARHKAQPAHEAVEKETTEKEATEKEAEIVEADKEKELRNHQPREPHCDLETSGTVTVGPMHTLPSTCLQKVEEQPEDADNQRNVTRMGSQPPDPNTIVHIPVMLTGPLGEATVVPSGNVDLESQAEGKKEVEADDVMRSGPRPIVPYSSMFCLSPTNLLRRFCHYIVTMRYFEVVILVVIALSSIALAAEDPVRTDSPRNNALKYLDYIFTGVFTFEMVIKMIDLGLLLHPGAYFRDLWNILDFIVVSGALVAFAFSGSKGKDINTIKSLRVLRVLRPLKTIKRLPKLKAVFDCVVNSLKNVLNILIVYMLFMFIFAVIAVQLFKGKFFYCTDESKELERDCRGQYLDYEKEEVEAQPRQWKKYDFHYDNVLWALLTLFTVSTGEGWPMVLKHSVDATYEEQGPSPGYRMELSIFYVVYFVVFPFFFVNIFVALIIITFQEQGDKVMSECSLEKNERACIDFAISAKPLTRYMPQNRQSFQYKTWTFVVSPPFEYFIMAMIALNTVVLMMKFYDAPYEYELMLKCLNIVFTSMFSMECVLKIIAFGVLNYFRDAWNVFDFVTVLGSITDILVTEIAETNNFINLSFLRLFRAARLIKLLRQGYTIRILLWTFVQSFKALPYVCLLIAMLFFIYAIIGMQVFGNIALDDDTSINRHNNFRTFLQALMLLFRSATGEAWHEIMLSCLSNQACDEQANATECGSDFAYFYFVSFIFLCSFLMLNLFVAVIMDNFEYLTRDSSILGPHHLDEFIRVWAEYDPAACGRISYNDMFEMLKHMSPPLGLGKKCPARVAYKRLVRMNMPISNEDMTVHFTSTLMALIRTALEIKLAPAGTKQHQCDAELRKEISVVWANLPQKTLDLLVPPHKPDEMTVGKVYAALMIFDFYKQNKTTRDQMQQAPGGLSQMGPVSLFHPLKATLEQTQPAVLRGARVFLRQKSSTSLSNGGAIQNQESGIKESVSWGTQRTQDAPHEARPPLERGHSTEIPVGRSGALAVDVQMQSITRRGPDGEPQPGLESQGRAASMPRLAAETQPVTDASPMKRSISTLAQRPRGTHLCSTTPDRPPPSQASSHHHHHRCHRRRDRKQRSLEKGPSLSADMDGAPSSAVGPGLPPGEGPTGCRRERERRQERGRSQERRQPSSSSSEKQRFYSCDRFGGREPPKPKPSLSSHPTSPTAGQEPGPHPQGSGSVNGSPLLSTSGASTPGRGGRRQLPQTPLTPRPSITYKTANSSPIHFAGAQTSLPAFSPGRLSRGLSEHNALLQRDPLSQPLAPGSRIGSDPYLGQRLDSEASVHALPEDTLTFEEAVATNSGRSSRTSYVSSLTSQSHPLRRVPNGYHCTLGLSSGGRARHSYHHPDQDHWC

Row | pIC50 | Compound
1 | 6.00 | CC(C)=CCN(c1ccccc1)C1CCN(C(=O)[C@H](CC(C)C)NC(=O)N2CCCCCC2)CC1
2 | 5.96 | CC(C)CCN(c1ccc(O)cc1)C1CCN(C(=O)[C@H](CC(C)C)NC(=O)N2CCCCCC2)CC1
3 | 3.92 | CC(C)CCN(c1ccc(NCc2cnc[nH]2)cc1)C1CCN(C(=O)[C@H](CC(C)C)NC(=O)N2CCCCCC2)CC1
4 | 6.17 | CC(C)=CCN(c1ccc(CCc2ccccc2)cc1)C1CCN(C(=O)[C@H](CC(C)C)NC(=O)N2CCCCCC2)CC1
5 | 6.47 | CC(C)=CCN(c1ccc(OCc2ccccc2)cc1)C1CCN(C(=O)[C@H](CC(C)C)NC(=O)N2CCCCCC2)CC1

Row | Compound | pIC50
6 | CC(C)CCN(c1ccc(OCc2ccccc2)cc1)C1CCN(C(=O)[C@H](CC(C)C)NC(=O)N2CCCCCC2)CC1 | 6.72
